Tests used:
Assay in all cases: relative viability (nuclei count vs DMSO), 5 days (fraction); higher = more cells survive
SGI-1776 + Linsitinib = compound: CN1CCC(CNc2ccc3ncc(-c4cccc(OC(F)(F)F)c4)n3n2)CC1 [SGI-1776] + C[C@]1(O)C[C@@H](c2nc(-c3ccc4ccc(-c5ccccc5)nc4c3)c3c(N)nccn32)C1 [Linsitinib] (partner 1 µM)
Method in brief: (§1)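 Lung cancer cell lines were pin-tool dosed in 1536-well plates on the day after seeding, with either a lone drug or a fixed anchor-drug dose plus five library-drug doses (not always all listed) in √10 steps. Nuclei were counted on 4× images after 5 days. Relative viability is the ratio of treated-well to vehicle-well nuclei counts, with each value a median of duplicate plates.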

Entinostat + OSI-027 = compound: Nc1ccccc1NC(=O)c1ccc(CNC(=O)OCc2cccnc2)cc1 [Entinostat] + COc1cccc2cc(-c3nc([C@H]4CC[C@H](C(=O)O)CC4)n4ncnc(N)c34)[nH]c12 [OSI-027] (partner 0.5 µM)
Method in brief: as §1

[1] = compound: C1COCCN1C2=NC(=NC3=C2OC4=C3C=CC=N4)C5=CC(=CC=C5)NC(=O)C6=CN=C(C=C6)N + CC(C)C[C@H](NC(=O)[C@H](Cc1ccccc1)NC(=O)c1cnccn1)B(O)O [Bortezomib] (partner 0.002 µM)
Method in brief: as §1

[2] = compound: C1COCCN1C2=NC(=NC3=C2OC4=C3C=CC=N4)C5=CC(=CC=C5)NC(=O)C6=CN=C(C=C6)N + CC(=O)c1c(C)c2cnc(Nc3ccc(N4CCNCC4)cn3)nc2n(C2CCCC2)c1=O [Palbociclib] (partner 0.5 µM)
Method in brief: as §1

Cell Line | relative viability (SGI-1776 + Linsitinib; first compound 0.08 µM) | relative viability (SGI-1776 + Linsitinib; first compound 0.8 µM) | relative viability (SGI-1776 + Linsitinib; first compound 2.53 µM) | relative viability (SGI-1776 + Linsitinib; first compound 8 µM) | relative viability (Entinostat + OSI-027; first compound 0.02 µM) | relative viability (Entinostat + OSI-027; first compound 0.06325 µM) | relative viability (Entinostat + OSI-027; first compound 0.2 µM) | relative viability (Entinostat + OSI-027; first compound 0.6325 µM) | relative viability (Entinostat + OSI-027; first compound 2 µM) | relative viability ([1]; first compound 0.02 µM) | relative viability ([1]; first compound 0.06325 µM) | relative viability ([1]; first compound 0.2 µM) | relative viability ([1]; first compound 0.6325 µM) | relative viability ([1]; first compound 2 µM) | relative viability ([2]; first compound 0.02 µM) | relative viability ([2]; first compound 0.06325 µM) | relative viability ([2]; first compound 0.2 µM) | relative viability ([2]; first compound 0.6325 µM) | relative viability ([2]; first compound 2 µM)
NCI-H520 | 1.17 | 1.02 | 1.05 | 0.848 | 0.335 | 0.277 | 0.274 | 0.385 | 0.407 | 0.637 | 0.641 | 0.465 | 0.529 | 0.298 | 0.206 | 0.236 | 0.226 | 0.207 | 0.189
NCI-H647 | 1.29 | 1.16 | 0.978 | 0.739 | 0.677 | 0.537 | 0.562 | 0.302 | 0.179 | 1.02 | 1.47 | 0.983 | 0.862 | 0.402 | 0.408 | 0.433 | 0.38 | 0.279 | 0.25
NCI-H650 | 1.07 | 0.952 | 0.686 | 0.727 | 0.614 | 0.614 | 0.586 | 0.489 | 0.261 | 0.773 | 0.906 | 0.75 | 0.909 | 0.529 | 0.308 | 0.325 | 0.35 | 0.345 | 0.287
NCI-H661 | 0.74 | 0.643 | 0.545 | 0.502 | 0.688 | 0.757 | 0.724 | 0.54 | 0.629 | 0.772 | 0.747 | 0.741 | 0.657 | 0.63 | 0.396 | 0.402 | 0.387 | 0.375 | 0.374
NCI-H727 | 0.254 | 0.26 | 0.346 | 0.241 | 0.679 | 0.808 | 0.5 | 0.493 | 0.398 | 0.748 | 0.834 | 0.806 | 1.12 | 0.536 | 0.579 | 0.592 | 0.613 | 0.666 | 0.77
NCI-H838 | 1.03 | 0.982 | 1.02 | 0.684 | 0.46 | 0.489 | 0.474 | 0.487 | 0.318 | 0.708 | 0.872 | 0.564 | 0.659 | 0.469 | 0.194 | 0.212 | 0.195 | 0.197 | 0.175
NCI-H1355 | 0.92 | 0.899 | 0.792 | 0.729 | 0.476 | 0.434 | 0.397 | 0.27 | 0.252 | 1.24 | 1.25 | 1.27 | 1.21 | 1.06 | 0.371 | 0.385 | 0.423 | 0.609 | 0.354
NCI-H1437 | 1.03 | 1.03 | 0.952 | 0.452 | 0.786 | 0.581 | 0.306 | 0.218 | 0.203 | 0.428 | 0.733 | 0.483 | 0.474 | 0.185 | 0.3 | 0.312 | 0.269 | 0.295 | 0.2
